Legend:
[1] = system: isolated rat brain mitochondria; assay: Toxicity of compounds alone on isolated rat brain mitochondria (MDA, GSH); format: cell-based; details: compound alone, 100 μM, vs non-treated mitochondria
Method: (§1) Two types of buffers were used for the isolation of the rat brain synaptosomes and mitochondria. Buffer A was 5 mM HEPES and 0.32 M Sucrose; Buffer B was 290 mM NaCl, 0.95 mM MgCl2 × 2H2O, 10 mM KCl, 2.4 mM CaCl2 × 2H2O, 2.1 mM NaH2PO4, 44 mM HEPES, 13 mM D-Glucose. For the gradient centrifugation, Percoll reagent was used. A stock solution of 90% Percoll was used to prepare 16%, 10% and 7.5% solutions. All the solutions were used as described below. Immediately after harvesting, synaptosomes, microsomes, and mitochondria were incubated with the exam compounds for 1 h. For assessing the possible neurotoxicity of the most MAOB active compounds, the sub-cellular fractions were incubated with 100 µM of them, and for evaluating their possible neuroprotective and antioxidant activities in different models of neurotoxicity, the sub-cellular fractions were incubated with 50µM of them. The protein measurement of all the sub-cellular fractions was made by the method of Lowry et al., 1951 [57].
The mitochondria were prepared by multiple differential fractionation using a Percoll gradient.
After incubation of the mitochondria, 0.3 mL 0.2% TBA and 0.25 mL sulfuric acid (0.05 M) were added to stop the reaction. The tubes were maintained at 100 °C for 30 min. In the next stage, centrifugation of the tubes was carried out at 3500× g for 10 min. Assessment of the total quantity of MDA formed in each sample was measured in the supernatant at 532 nm.
After incubation of mitochondria, 0.04% DTNB was mixed with the mitochondrial suspensions in 0.1 M phosphate buffer (pH 7.4). The absorbance of the yellow product was measured at 412 nm.

[2] = system: isolated rat brain microsomes; assay: FeSO4/ascorbic acid-induced lipid peroxidation in isolated rat brain microsomes; format: cell-based; details: compound 50 μM with Fe/AA
Method: as §1
The brain was homogenized in 9 vol. of 0.1 M Tris buffer containing 0.1 mM Dithiothreitol, 0.1 mM Phenylmethylsulfonyl fluoride, 0.2 mM EDTA, 1.15% KCl, and 20% (v/v) glycerol at pH 7.4. The homogenate was centrifuged twice at 17,000× g for 30 min. […]
The quantity of the lipid peroxidation product MDA was assessed using the method described by Deby and Goutier.

| SMILES | decrease of GSH level compared to the control [1] [%] | increase of MDA production compared to the control [1] [%] | decrease of MDA production compared to the toxic agent [2] [%] |
| --- | --- | --- | --- |
| Cc1ccc(C)n1-c1ccc(CC(=O)O)cc1 [EM-DC-27, [4-(2,5-dimethyl-1H-pyrrol-1-yl)phenyl]acetic acid] | 25 | 70 | 56 |
| Cc1ccc(C)n1C(Cc1cnc[nH]1)C(=O)O (stereo not drawn) [EM-DC-19, 2-(2,5-dimethyl-1H-pyrrol-1-yl)-3-(2H-imidazol-4-yl)propanoic acid] | 25 | 50 | 60 |

— publication PMC12655551, “Design, Synthesis, and Evaluation of Pyrrole-Based Selective MAO-B Inhibitors with Additional AChE Inhibitory and Neuroprotective Properties Identified via Virtual Screening” (Pharmaceuticals, 2025)
